Test results from patent publication US9035059B2, “Nitrogen-containing condensed heterocyclic compound” (TAISHO PHARMACEUTICAL CO., LTD., priority 2011, dated 2015).

target: human MGAT2 (Homo sapiens (Human), UniProt Q3SYC2); assay: Test Example 1: Test of MGAT2 inhibitory action (human MGAT2 enzyme fraction from Sf9 cells, free CoA detected by CPM fluorescence); assay type: biochemical; details: human MGAT2 enzyme fraction expressed in Sf9 insect cells, 0.5 μg/ml, 2-monooleoyl glycerol 0.78 μM, oleoyl-CoA 5.3 μM, room temperature 20 min, listed as 10-3, read-out: Activity Value [nM] (IC50, concentration at which 50% of produced free CoA was inhibited)
Sequence (Q3SYC2 whole entry): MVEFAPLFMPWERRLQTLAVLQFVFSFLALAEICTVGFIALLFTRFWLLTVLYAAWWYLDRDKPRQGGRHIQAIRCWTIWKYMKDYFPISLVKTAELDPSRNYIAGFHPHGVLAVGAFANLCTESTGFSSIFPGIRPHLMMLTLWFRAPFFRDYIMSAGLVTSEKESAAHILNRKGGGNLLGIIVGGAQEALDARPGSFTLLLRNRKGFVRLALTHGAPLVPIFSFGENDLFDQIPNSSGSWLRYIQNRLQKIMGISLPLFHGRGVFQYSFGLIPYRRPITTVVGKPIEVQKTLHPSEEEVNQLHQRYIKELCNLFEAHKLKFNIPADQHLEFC
Protocol: The MGAT2 inhibitory action of the inventive compound was measured by the methods described in Test Examples as shown below. The MGAT enzyme activity was measured based on the amount of an indicator, free Coenzyme A (CoA) which is generated by the reaction shown below, using a sulfhydryl reactive pigment (7-diethylamino-3-(4-maleimidophenyl)-4-methylcoumarin; hereinafter, sometimes abbreviated as CPM).
A test for MGAT2 inhibitory action of test compounds was conducted in accordance with a partially modified version of the method described in John F. Lockwood et al., Am. J. Physiol. Endocrinol. Metab., 2003, 285, E927.
Bac-to-Bac Baculovirus Expression System (Life Technologies Japan) was used to express human MGAT2 in insect cells (Sf9) (Life Technologies Japan). These cells were sonicated and centrifuged at 100,000 g×1 hr to give a precipitate. The precipitate was used as a human MGAT2 enzyme fraction in this assay.
This test was conducted using a black flat-bottom 96-well plate (Corning). A buffer solution with final concentrations of 5 mM magnesium chloride, 100 mM sucrose and 100 mM Tris-HCl (pH=7.5) was prepared and test compounds prepared in various concentrations using dimethyl sulfoxide were added thereto to give a final dimethyl sulfoxide concentration of 1%. The MGAT2 enzyme fraction was added thereto to give a final concentration of 0.5 μg/ml and phosphatidylcholine, 2-monooleoyl glycerol and oleoyl-CoA were added thereto to give final concentrations of 7.5 μM, 0.78 μM and 5.3 μM, respectively, before starting a reaction. The reaction was performed at room temperature for 20 min.
After 20 min, a CPM-containing solution was added thereto to give a final concentration of 5 μM before stopping the MGAT reaction. After 1 hr, a fluorescence detector (Infinite 200 from Tecan Japan) was used to measure the CPM fluorescence value of each well (excitation 380 nm, emission 460 nm).

Structure (SMILES) | IC50
CCCCCCOc1ccc(NS(=O)(=O)c2ccc3c(c2)CCN(C(C)Cc2ccc(C(C)(C)C)cc2)C3)c(F)c1 (single isomer, unassigned) [Working Example 10-3] | 26 nM

same assay, conditions: human MGAT2 enzyme fraction expressed in Sf9 insect cells, 0.5 μg/ml, 2-monooleoyl glycerol 0.78 μM, oleoyl-CoA 5.3 μM, room temperature 20 min, listed as 10-6, read-out: Activity Value [nM] (IC50, concentration at which 50% of produced free CoA was inhibited)

Structure (SMILES) | IC50
CC(Cc1ccc(C(C)(C)C)cc1)N1CCc2cc(S(=O)(=O)Nc3ccc(CCCC4CCCC4)cc3F)ccc2C1 (single isomer, unassigned) [Working Example 10-6] | 44 nM

same assay, conditions: human MGAT2 enzyme fraction expressed in Sf9 insect cells, 0.5 μg/ml, 2-monooleoyl glycerol 0.78 μM, oleoyl-CoA 5.3 μM, room temperature 20 min, listed as 10-12, read-out: Activity Value [nM] (IC50, concentration at which 50% of produced free CoA was inhibited)

Structure (SMILES) | IC50
CC(Cc1ccc(C(C)(C)C)cc1)N1CCc2cc(S(=O)(=O)Nc3ccc(OCCCCCc4ccccc4)cc3F)ccc2C1 (single isomer, unassigned) [Working Example 10-12] | 42 nM

same assay, conditions: human MGAT2 enzyme fraction expressed in Sf9 insect cells, 0.5 μg/ml, 2-monooleoyl glycerol 0.78 μM, oleoyl-CoA 5.3 μM, room temperature 20 min, read-out: Activity Value [nM] (IC50, concentration at which 50% of produced free CoA was inhibited)

Structure (SMILES) | IC50
CC(C)(C)c1ncc(CN2CCc3cc(S(=O)(=O)Nc4ccc(CCCC5CCCC5)cc4F)ccc3C2)s1 [Working Example 6-48] | 49 nM
CC(c1ccc(C(C)(C)C)cc1)N1CCc2cc(S(=O)(=O)Nc3ccc(OCCCc4ccccc4)cc3F)ccc2C1 (stereo not shown) [Working Example 11-3] | 116 nM
CC(C)(C)c1ccc(CN2CCc3cc(S(=O)(=O)Nc4ccc(OCCC5CCOCC5)cc4F)ccc3C2)cc1 [Working Example 6-66] | 203 nM
CC(C)(C)c1ccc(NC(=O)N2Cc3ccc(S(=O)(=O)Nc4ccc(OCCC5CCCCC5)cc4F)cc3C2)cc1 [18-11] | 29 nM
CC(C)(C)c1ccc(NC(=O)N2Cc3ccc(S(=O)(=O)Nc4ccc(OCCCCCc5ccccc5)cc4F)cc3C2)cc1 [18-16] | 10 nM
C/C=C\CCCOc1ccc(NS(=O)(=O)c2ccc3c(c2)CN(C(=O)Nc2ccc(C(C)(C)C)cc2)C3)c(F)c1 [19-11] | 128 nM
CC(C)(C)c1ccc(CN2CCc3cc(S(=O)(=O)Nc4ccc(OCCCC5CCCCC5)cc4F)ccc3C2)cn1 [Working Example 6-35] | 65 nM
COc1cc(F)cc(F)c1NS(=O)(=O)c1ccc2c(c1)CN(C(=O)Nc1ccc(C(C)(C)C)cc1)C2 [14-21] | 193 nM
CCCCCCCCN1CCc2cc(S(=O)(=O)Nc3ccc(OCCCCCC)cc3F)ccc2C1 [Working Example 6-36] | 253 nM
CC(C)(C)c1ccc(NC(=O)N2Cc3ccc(S(=O)(=O)Nc4ccc(OCCCCc5ccccc5)cc4F)cc3C2)cc1 [19-2] | 30 nM
COc1cc(F)ccc1NS(=O)(=O)c1ccc2c(c1)CN(C(=O)Nc1ccc(C(C)(C)C)cc1)C2 [14-9] | 168 nM
CC(C)(C)c1ccc(CCN2CCc3cc(S(=O)(=O)Nc4ccc(OCCCc5ccccc5)cc4F)ccc3C2)cn1 [Working Example 6-45] | 286 nM
CC(C)(C)c1ccc(CCN2CCc3cc(S(=O)(=O)Nc4ccc(CCCC5CCOCC5)cc4F)ccc3C2)cc1 [Working Example 6-75] | 24 nM
O=C(NC1CCCCC1)N1CCc2cc(S(=O)(=O)Nc3ccc(CCCC4CCCC4)cc3F)ccc2C1 [14-36] | 69 nM
CCCCCCOc1ccc(NS(=O)(=O)c2ccc3c(c2)CCN(CCc2cnc(C(C)(C)C)cn2)C3)c(F)c1 [Working Example 9-20] | 212 nM
CC(C)(C)c1ncc(CN2CCc3cc(S(=O)(=O)Nc4ccc(CCCC5CCCC5)cc4F)ccc3C2)cn1 [Working Example 7-56] | 52 nM
CCCCCCOc1ccc(NS(=O)(=O)c2ccc3c(c2)CCN(Cc2ccc(C(C)(C)C)nc2)C3)c(F)c1 [Working Example 6-27] | 135 nM
CC(C)(C)c1ccc(NC(=O)N2Cc3ccc(S(=O)(=O)Nc4ccc(OCCCC5CCCCC5)cc4F)cc3C2)cc1 [18-12] | 26 nM
CCCCCCCc1ccc(NS(=O)(=O)c2ccc3c(c2)CCN(CCCCCC)C3)c(F)c1 [Working Example 7-35] | 220 nM
CC(C)(C)c1ccc(C(=O)N2CCc3cc(S(=O)(=O)Nc4ccc(CCCC5CCCC5)cc4F)ccc3C2)cc1 [Working Example 1-4] | 211 nM
CC(C)(C)c1ccc(NC(=O)N2Cc3ccc(S(=O)(=O)Nc4ccc(OCCOC5CCCC5)cc4F)cc3C2)cc1 [18-29] | 128 nM
CCCCCCCCOc1ccc(NS(=O)(=O)c2ccc3c(c2)CN(C(=O)Nc2ccc(C(C)(C)C)cc2)C3)c(F)c1 [18-7] | 7 nM

Structure (SMILES) | IC50
CC(C)(C)c1ccc(CC(=O)N2CCc3cc(S(=O)(=O)Nc4ccc(OCCC5CCCCC5)cc4F)ccc3C2)cc1 [Working Example 4-1, 2-[(4-tert-Butylphenyl)acetyl]-N-[4-(2-cyclohexylethoxy)-2-fluorophenyl]-1,2,3,4-tetrahydroisoquinoline-6-sulfonamide] | 149 nM
CC(C)(C)c1ccc(CCN2CCc3cc(S(=O)(=O)Nc4ccc(CCCC5CCCC5)cc4F)ccc3C2)cn1 [Working Example 6-63] | 62 nM
CCCCCCCc1ccc(NS(=O)(=O)c2ccc3c(c2)CCN(Cc2ccc(C(C)(C)C)nc2)C3)c(F)c1 [Working Example 6-32] | 31 nM
CC(C)(C)c1ccc(NC(=O)N2Cc3ccc(S(=O)(=O)Nc4ccc(OCCCc5ccccc5)cc4F)cc3C2)cc1 [18-15] | 56 nM
COc1ccc(OCCOc2ccc(NS(=O)(=O)c3ccc4c(c3)CN(C(=O)Nc3ccc(C(C)(C)C)cc3)C4)c(F)c2)cc1 [18-22] | 120 nM
CC(C)Oc1ccc(CN2CCc3cc(S(=O)(=O)Nc4ccc(CCCC5CCCC5)cc4F)ccc3C2)cc1 [Working Example 7-45] | 199 nM
CC(C)(C)c1ccc(CCN2CCc3cc(S(=O)(=O)Nc4ccc(OCCCCCc5ccccc5)cc4F)ccc3C2)cc1 [17-5] | 24 nM
CC(C)(C)c1cnc(CCN2CCc3cc(S(=O)(=O)Nc4ccc(CCCC5CCCC5)cc4F)ccc3C2)nc1 [Working Example 6-64] | 40 nM
C/C=C\CCCCCOc1ccc(NS(=O)(=O)c2ccc3c(c2)CN(C(=O)Nc2ccc(C(C)(C)C)cc2)C3)c(F)c1 [19-4] | 2 nM
CC(C)(C)c1ccc(CCN2CCc3cc(S(=O)(=O)Nc4ccc(CCCC5CCCC5)cc4F)ccc3C2)cc1 [Working Example 6-17] | 28 nM
CCCCCCOc1ccc(NS(=O)(=O)c2ccc3c(c2)CN(C(=O)Nc2ccc(C(C)(C)C)cc2)C3)c(F)c1 [18-6] | 43 nM
CCCCCCOc1ccc(NS(=O)(=O)c2ccc3c(c2)CCN(CCc2ccc(C(C)(C)C)nc2)C3)c(F)c1 [Working Example 6-44] | 258 nM
CC(C)(C)c1ccc(NC(=O)N2Cc3ccc(S(=O)(=O)Nc4ccc(OCCOc5ccccc5)cc4F)cc3C2)cc1 [18-18] | 136 nM
CC(C)(C)c1ccc(NC(=O)N2Cc3ccc(S(=O)(=O)Nc4ccc(OCCCC5CCCC5)cc4F)cc3C2)cc1 [19-3] | 4 nM
CC(C)(C)c1ccc(NC(=O)N2Cc3ccc(S(=O)(=O)Nc4ccc(OCCC5CCCC5)cc4F)cc3C2)cc1 [18-32] | 58 nM
CC(C)(C)c1ccc(CCN2CCc3cc(S(=O)(=O)Nc4ccc(OCCCc5ccccc5)cc4F)ccc3C2)cc1 [Working Example 8-2] | 173 nM
CCCCCCCOc1ccc(NS(=O)(=O)c2ccc3c(c2)CN(C(=O)Nc2ccc(C(C)(C)C)cc2)C3)c(F)c1 [19-8] | 28 nM
O=S(=O)(Nc1ccc(CCCC2CCCC2)cc1F)c1ccc2c(c1)CCN(Cc1ccc(C(F)(F)F)nc1)C2 [Working Example 6-54] | 180 nM
Cc1nc(-c2ccc(C(F)(F)F)cc2)sc1CN1CCc2cc(S(=O)(=O)Nc3ccc(CCCC4CCCC4)cc3F)ccc2C1 [Working Example 6-65] | 51 nM
CC(C)(C)c1ccc(CN2CCc3cc(S(=O)(=O)Nc4ccc(CCCC5CCCC5)cc4F)ccc3C2)cn1 [Working Example 6-31] | 31 nM
COc1ccc(NS(=O)(=O)c2ccc3c(c2)CN(C(=O)Nc2ccc(C(C)(C)C)cc2)C3)c(F)c1 [14-16] | 164 nM
